Tests used:
[1] = Inhibition of RNA-dependent RNA polymerase in Zika virus PRVABC59/Human/2015/Puerto Rico infected in human NSC assessed as antiviral activity measured 72 hrs post infection by CellTiter-Glo assay
[2] = Inhibition of RNA-dependent RNA polymerase in Zika virus H/PAN/2016/BEI-259634 infected in human NSC assessed as antiviral activity measured 72 hrs post infection by CellTiter-Glo assay
[3] = Inhibition of RNA-dependent RNA polymerase in Zika virus MR766 infected in African green monkey Vero E6 cells assessed as antiviral activity
[4] = Inhibition of MTase in Zika virus infected in African green monkey Vero cells assessed as antiviral activity incubated for 5 days by inverted microscopic method
[5] = Inhibition of RNA-dependent RNA polymerase in Zika virus PRVABC59 infected in African green monkey Vero cells assessed as antiviral activity measured 96 hrs post infection by plaque assay
[6] = Inhibition of RNA-dependent RNA polymerase in Zika virus PRVABC59 infected in African green monkey Vero cells infected with supernatants from virus-infected human SNB-19 cells treated with compound for 1 hr assessed as antiviral activity after 48 to 72 hrs
[7] = Inhibition of RNA-dependent RNA polymerase in Zika virus MR766 infected in HEK293 cells assessed as antiviral activity by measuring NS1 protein expression preincubated for 1 hr followed by viral infection and measured after 24 hrs by TR-FRET assay
Genome polyprotein [8] = target: T1, Genome polyprotein (Zika virus, UniProt A0A143MHK7); test: Inhibition of RNA-dependent RNA polymerase in Zika virus MR766 infected in African green monkey Vero cells assessed as antiviral activity by methylene blue staining based by Plaque reduction assay
T1 sequence (A0A143MHK7 whole entry): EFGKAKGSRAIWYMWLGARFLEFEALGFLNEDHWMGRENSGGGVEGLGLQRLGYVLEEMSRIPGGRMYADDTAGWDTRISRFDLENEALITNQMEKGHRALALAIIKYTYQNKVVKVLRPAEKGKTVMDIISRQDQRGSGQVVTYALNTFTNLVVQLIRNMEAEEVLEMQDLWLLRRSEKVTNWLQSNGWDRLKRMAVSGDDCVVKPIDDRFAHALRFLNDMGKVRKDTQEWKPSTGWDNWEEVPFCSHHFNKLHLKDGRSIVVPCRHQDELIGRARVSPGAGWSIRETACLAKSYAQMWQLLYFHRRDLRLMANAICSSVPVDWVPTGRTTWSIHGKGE

Genome polyprotein [9] = target: T1, Genome polyprotein; test: Inhibition of RNA-dependent RNA polymerase in Zika virus MR766 infected in African green monkey Vero cells assessed as antiviral activity by measuring reduction in virus-induced cytopathic effect after 5 days by MTS assay
Genome polyprotein [10] = target: T1, Genome polyprotein; test: Inhibition of RNA-dependent RNA polymerase in Zika virus MR766 infected in African green monkey Vero cells assessed as antiviral activity by Alexa Fluor 488/DAPI staining based assay
Genome polyprotein [11] = target: T1, Genome polyprotein; test: Inhibition of RNA-dependent RNA polymerase in Zika virus MR766 infected in African green monkey Vero cells assessed as antiviral activity by measuring reduction in virus-yield
Genome polyprotein [12] = target: T1, Genome polyprotein; test: Inhibition of RNA-dependent RNA polymerase in Zika virus Malaysian P 6-740 infected in African green monkey Vero cells assessed as antiviral activity by neutral dye based colorimetric method
Genome polyprotein [13] = target: T1, Genome polyprotein; test: Inhibition of RNA-dependent RNA polymerase in Zika virus Ugandan MR-766 infected in human Huh-7 cells assessed as antiviral activity by neutral dye based colorimetric method
Genome polyprotein [14] = target: T1, Genome polyprotein; test: Inhibition of RNA-dependent RNA polymerase in Zika virus PRVABC-59 infected in human RD cells assessed as antiviral activity by neutral dye based colorimetric method
Genome polyprotein [15] = target: T1, Genome polyprotein; test: Inhibition of RNA-dependent RNA polymerase in Zika virus Ugandan MR-766 infected in human RD cells assessed as antiviral activity by neutral dye based colorimetric method
Genome polyprotein [16] = target: T1, Genome polyprotein; test: Inhibition of RNA-dependent RNA polymerase in Zika virus PRVABC-59 infected in African green monkey Vero cells assessed as antiviral activity by neutral dye based colorimetric method
Genome polyprotein [17] = target: T1, Genome polyprotein; test: Inhibition of RNA-dependent RNA polymerase in Zika virus Malaysian P 6-740 infected in human Huh-7 cells assessed as antiviral activity by neutral dye based colorimetric method
Genome polyprotein [18] = target: T1, Genome polyprotein; test: Inhibition of RNA-dependent RNA polymerase in Zika virus PRVABC-59 infected in human HuH7 cells assessed as antiviral activity by neutral dye based colorimetric method
Genome polyprotein [19] = target: T1, Genome polyprotein; test: Inhibition of RNA-dependent RNA polymerase in Zika virus Ugandan MR-766 infected in African green monkey Vero cells assessed as antiviral activity by neutral dye based colorimetric method
[20] = Inhibition of RNA-dependent RNA polymerase in Zika virus infected in human NPC assessed as antiviral activity by DAPI-staining based assay
[21] = Inhibition of RNA-dependent RNA polymerase in Zika virus infected in African green monkey Vero cells assessed as antiviral activity by DAPI-staining based assay
Nonstructural protein 3 [22] = target: T2, Nonstructural protein 3 (Zika virus, UniProt A0A024AXB9); test: Inhibition of NS2B-NS3 protease in Zika virus Puerto Rico/PRVABC5 infected in African green monkey Vero cells assessed as antiviral activity measured 48 hrs post infection by RT-PCR method
T2 sequence (A0A024AXB9 whole entry): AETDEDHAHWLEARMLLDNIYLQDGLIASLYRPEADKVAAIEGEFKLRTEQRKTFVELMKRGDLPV

Nonstructural protein 3 [23] = target: T2, Nonstructural protein 3; test: Inhibition of NS2B-NS3 protease in Zika virus Puerto Rico/PRVABC5 infected in human Huh7 cells assessed as antiviral activity measured 48 hrs post infection by RT-PCR method
Nonstructural protein 3 [24] = target: T2, Nonstructural protein 3; test: Inhibition of NS2B-NS3 protease in Zika virus Puerto Rico/PRVABC5 assessed as antiviral activity measured 48 hrs post infection by plaque reduction assay
Genome polyprotein [25] = target: T1, Genome polyprotein; test: Inhibition of RNA-dependent RNA polymerase in Zika virus FSS13025/2010 infected in African green monkey Vero cells assessed as antiviral activity measured 48 hrs post infection by plaque assay
Genome polyprotein [26] = target: T1, Genome polyprotein; test: Inhibition of RNA-dependent RNA polymerase in Zika virus GZ01/2016 infected in African green monkey Vero cells assessed as antiviral activity measured 48 hrs post infection by plaque assay
Genome polyprotein [27] = target: T1, Genome polyprotein; test: Inhibition of RNA-dependent RNA polymerase in Zika virus GZ01/2016 infected in African green monkey Vero cells assessed as antiviral activity by measuring viral RNA by RT-qPCR method
Genome polyprotein [28] = target: T1, Genome polyprotein; test: Inhibition of RNA-dependent RNA polymerase in Zika virus FSS13025/2010 infected in African green monkey Vero cells assessed as antiviral activity by measuring viral RNA by RT-qPCR method
[29] = Inhibition of RNA-dependent RNA polymerase in Zika virus MR766 infected in African green monkey Vero cells assessed as antiviral activity after 72 hrs by DAPI staining based assay

## C#C[C@@]1(O)[C@H](O)[C@@H](COP(=O)(N[C@@H](C)C(=O)OC(C)C)Oc2ccccc2)O[C@H]1n1ccc(=O)[nH]c1=O (stereo partly specified)
[1]
  EC50: 300 nM
[2]
  EC50: 800 nM

## CCCCCOCc1c(Nc2ccc(S(N)(=O)=O)cc2)nc(N2CCOCC2)nc1C(=O)NCCOc1ccccc1
[3]
  EC50: 2040 nM

## CC(C)OC(=O)[C@H](C)NP(=O)(OC[C@H]1O[C@@H](n2ccc(=O)[nH]c2=O)[C@H](O)[C@@H]1O)Oc1ccccc1 (stereo partly specified)
[1]
  EC50: 1000 nM
[2]
  EC50: 2000 nM

## O=C1c2cccc3cccc(c23)C(=O)N1CCc1ccc(S(=O)(=O)N2CCN(c3ccccc3)CC2)cc1
[4]
  EC50: 4800 nM

## O=C(NC(=S)Nc1ccc(N2CCN(C(=O)c3cccs3)CC2)cc1)c1sc2ccccc2c1Cl
[5]
  EC50: 94 nM

## CC[C@H]1CN2CCc3cc(OC)c(OC)cc3[C@@H]2C[C@@H]1C[C@H]1NCCc2cc(OC)c(OC)cc21 [6',7',10,11-tetramethoxyemetan]
[6]
  EC50: 8.7 nM
[7]
  EC50: 53 nM

## Nc1ncnc2c1ccn2[C@@H]1O[C@H](CO)[C@@H](O)[C@H]1O ['2-(4-AMINO-PYRROLO[2,3-D]PYRIMIDIN-7-YL)-5-HYDROXYMETHYL-TETRAHYDRO-FURAN-3,4-DIOL]
Genome polyprotein [8]
  EC50: 1300 nM
Genome polyprotein [9]
  EC50: 1300 nM
Genome polyprotein [10]
  EC50: 1300 nM
Genome polyprotein [11]
  EC50: 1300 nM

## Nc1ncnc2c([C@@H]3N[C@H](CO)[C@@H](O)[C@H]3O)c[nH]c12 [BCX-4430]
Genome polyprotein [12]
  EC50: 14300 nM
Genome polyprotein [13]
  EC50: 14300 nM
Genome polyprotein [14]
  EC50: 14300 nM
Genome polyprotein [15]
  EC50: 14300 nM
Genome polyprotein [16]
  EC50: 14300 nM
Genome polyprotein [17]
  EC50: 14300 nM
Genome polyprotein [18]
  EC50: 14300 nM
Genome polyprotein [19]
  EC50: 14300 nM

## CC(C)OC(=O)[C@H](C)N[P@](=O)(OC[C@H]1O[C@@H](n2ccc(=O)[nH]c2=O)[C@](C)(F)[C@@H]1O)Oc1ccccc1 [CHEBI:85083]
[20]
  EC50: 120 nM
[21]
  EC50: 30900 nM

## CO[C@@H]1[C@@H](OC(N)=O)[C@@H](O)[C@H](Oc2ccc3c(O)c(NC(=O)c4ccc(O)c(CC=C(C)C)c4)c(=O)oc3c2C)OC1(C)C [Carbamic acid 5-hydroxy-6-{4-hydroxy-3-[4-hydroxy-3-(3-methyl-but-2-enyl)-benzoylamino]-8-methyl-2-oxo-2H-chromen-7-yloxy}-3-methoxy-2,2-dimethyl-tetrahydro-pyran-4-yl ester(Novobiocin)]
Nonstructural protein 3 [22]
  EC50: 24400 nM
Nonstructural protein 3 [23]
  EC50: 24400 nM
Nonstructural protein 3 [24]
  EC50: 24400 nM

## C#C[C@@]1(O)[C@H](O)[C@@H](CO)O[C@H]1n1ccc2c(N)ncnc21 [NITD008]
Genome polyprotein [25]
  EC50: 137 nM
Genome polyprotein [26]
  EC50: 137 nM
Genome polyprotein [27]
  EC50: 137 nM
Genome polyprotein [28]
  EC50: 137 nM

## NC(=O)c1ncn([C@@H]2O[C@H](CO)[C@@H](O)[C@H]2O)n1 [Tribavirin]
[29]
  EC50: 20800 nM

Source: BindingDB's records for doi:10.1021/acs.jmedchem.9b00775 (University of North Carolina at Chapel Hill, 2020)
